This passage reports mortality results from patent US20260083129A1, “PYRAZOLE AMIDE INSECTICIDES” (FMC CORPORATION, priority 2022, published 2026).

The series concerns cotton melon aphid (Aphis gossypii (Glover)). As to the kind of experiment: Test C: control of cotton melon aphid on sprayed okra plant. The series is classed as in vivo. The following applies: sprayed at 250 ppm; assessed after 6 days. The protocol: Test compounds were formulated using a solution containing 10% acetone, 90% water and 300 ppm Activator 90@non-ionic surfactant (Loveland Products, Loveland, Colorado, USA). The formulated compounds were applied in 1 mL of liquid through an atomized nozzle positioned 1.27 cm (0.5 inches) above the top of each test unit. Test compounds were sprayed at the rates indicated, and each test was replicated three times.
For evaluating control of cotton melon aphid (Aphis gossypii (Glover)) through contact and/or systemic means, the test unit consisted of a small open container with a 5-day-old okra plant inside. This was pre-infested with 30-40 insects on a piece of leaf according to the cut-leaf method, and the soil of the test unit was covered with a layer of sand.
Test compounds were formulated and sprayed at 250, 50, 10, and 2 ppm with three replications as described above. After spraying, the test units were maintained in a growth chamber for 6 days at 19° C. and 70% relative humidity. Each test unit was then visually assessed for insect mortality.

Each structure is given as a SMILES string.

As to `CC(c1c([N+](=O)[O-])cnn1-c1ncccn1)N(C)C(=O)c1cc(C(F)(F)F)cc(C(F)(F)F)c1` (stereo not shown) [Compound 96], the mortality result is “at least 80%”.
